Measurements taken from publication PMC7179167 (Molecules, 2020).
Values after ≈ are worked out from the molar mass of the structure shown.

What was measured:
C. albicans (ATCC 10231) = assay: Disk diffusion antimicrobial test, C. albicans; format: cell-based, Candida albicans; settings: Candida albicans, ATCC10231, disk diffusion; yeast; 20 mg per disc (title), concentration 20 µg (footnote)
Protocol: (§1) The newly synthesized compounds were chosen to be evaluated in vitro towards a variety of pathogenic microorganisms; Gram-positive bacteria: S. aureus (ATCC 6538) and B. subtilis (ATCC 6633); Gram-negative bacteria: P. areuginosa (ATCC 27853) and E. coli (DSMZ 1058); yeast: C. albicans (ATCC 10231) and S. cerevisiae (ATCC 9080) and fungi: A. niger (NRRL A-326) using the disk diffusion method at a single dose of 20 µl. The results are shown in Table 1 as the growth inhibition zone (mm).
(§2) The antimicrobial activity of target compounds were evaluated to be in vitro against a variety of pathogenic microorganisms, namely Staphylococcus aureus (ATCC 6538), Bacillus subtilis (ATCC 6633) (Gram-positive bacteria), Pseudomonas areuginosa (ATCC 27853), Escherichia coli (DSMZ 1058) (Gram-negative bacteria), Candida albicans (ATCC 10231), Saccharomyces cerevisiae (ATCC 9080) (Yeast) and Aspergillus niger (NRRL A-326) (Fungi) using the disk diffusion method at a single dose of 20 µg. The microorganisms were served and obtained from the Microbial Biotechnology Department, National Research Center, Giza, Egypt. Amphotericin, amoxicillin and ciprofloxacin were used as reference drugs (Oxoid™ Disks). The tested compounds 11a–c, 12a–c, 13a–i, 14a–i and 15a,b were dissolved in dimethylsulphoxide (DMSO) at a concentration of 1 mg/mL. Aliquots of 20 μl were soaked on filter paper discs (6 mm) and dried at room temperature under sterilized conditions. The paper discs were placed on inoculated agar plats and then incubated for 24 h at 37 °C for bacterial strains and after 48–72 h incubation at 30 °C for fungi. Both bacterial and yeast strains were grown on nutrient agar medium (g/l): beef extract, 3; peptone, 10 and agar, 20 at pH of 7.2. The fungal strain was grown on Czapek-Dox medium (g/l): sucrose, 30; NaNO3, 3; MgSO4.7H2O, 0.5l; KCl, 0.5; FeSO4, 0.01; K2HPO4, 1 and agar, 20 at pH of 6.0.

caspase-3 = assay: Caspase-3 colorimetric assay in HCT-116 cells; format: cell-based, human; settings: HCT-116 cells treated at IC50 concentration; control 13.60 ± 2.45; mean ± SD
Excerpt: (§3) The promising antiproliferative results reported for compounds 11a, 11b, 12a, 12b and 13c against cell lines under study have prompted us to investigate the mechanism of cell death induced by these compounds. Apoptosis induction was examined in both MCF-7 and HCT-116 cancer cells by assaying the level of its key protein markers, namely: proapoptotic (p53, Bcl 2-associated X, Bax and caspases3) and antiapoptotic (B-cell lymphoma-2, Bcl-2). MCF-7 and HCT-116 cells undergoing apoptosis was detected by use of the ELISA technique. Protein marker levels were quantified according to Bradford assay.
(§4) Briefly, cells ([…] and HCT) were seeded at a concentration of 1.2–1.8 × 10^3 cells/well in 6-well plates. After 48-h treatment, the collected cells were lysed and centrifuged at 10,000 rpm for 20 min at 4 °C. The protein concentration was measured in the supernatant by Bradford protein assay. Volume containing […] of total protein was incubated with […] of caspase substrate in […] of the reaction buffer at 37 °C for 1 h in the dark. Caspase-3 activity was determined by a microplate reader at 405 nm using a caspase-3 colorimetric assay kit (Abcam) according to the manufacturer’s instructions. In vitro protein level quantitative measurement of apoptotic marker p53, Bcl-2-associated X (Bax) and antiapoptotic marker B-cell lymphoma-2 (Bcl-2) in cell lysate were assessed by Enzyme-Linked Immunosorbent Assay Simple Step ELISA® (ab199080, ab119506 and ab171571; Abcam) according to the manufacturer’s instructions.

Bax = Bax ELISA in MCF-7 cells; format: cell-based, human; settings: MCF-7 cells treated at IC50 concentration; control 39.56 ± 4.56; mean ± SD
Excerpt: as §3, §4

[1] = system: MCF-7 (human breast cancer); assay: MTT cytotoxicity assay, MCF-7; format: cell-based; settings: for inhibition at 100 µg/mL: MCF7, 100 µg/ml, 48 h, read-out: Growth Inhibition (%) MCF-7; for IC50: MCF7, 48 h post-treatment
Protocol: MCF-7 (human breast cancer), HCT-116 (human colon cancer) and HepG2 (human liver cancer) cell lines were obtained from Karolinska Institute, Stockholm, Sweden. All cells were maintained in RPMI 1640 medium. The media were supplemented with 10% heat-inactivated fetal bovine serum plus 1% antibiotic-antimycoticmixture (10,000 U/mL of potassium penicillin, 10,000 μg/mL of streptomycin sulfate, 25 μg/mL of amphotericin B and 1% of L glutamine (Biowest, USA)). BJ-1 of a human skin fibroblast derived from normal foreskin was obtained from ATCC® CRL-2522™ as a frozen ampoule with about 1 × 10^6 cells per 1 ml volume. BJ-1 was maintained in MEM with 2 mM of L-glutamine and Earle’s salts medium.
Cell viability was studied using the MTT 3-(4,5-dimethylthiazol-2-yl)-2,5-diphenyl-tetrazolium bromide (Bio Basic Canada Inc. Toronto, Canada) assay [33]. The steps were executed in a sterile laminar air flow cabinet biosafety class II level (Baker, SG403INT; Sanford, ME, USA). All incubations were carried out at 37 °C in a 5% CO2 incubator under a humidified atmosphere of 95% (Sheldon, TC2323; Cornelius, OR, USA). Cells were seeded into 96-well microtiter plastic plates at a concentration of (10^4 cells/well) and allowed to adhere for 24 h. The medium was aspirated and then added to the cells with the test compounds 11a–c, 12a–c, 13a–i, 14a–i and 15a,b at a single dose of 100 μg/mL in DMSO. After incubation of the medium for 48 h, 40 μL of MTT salt (2.5 μg/mL) was added to each well and then incubated for an additional 4 h. To stop the reaction and dissolve any formed formazan crystals, 200 μL of 10% sodium dodecyl sulfate (SDS) were added to each well and incubated overnight at 37 °C. The amount of formazan product was measured at 595 nm with a reference wavelength of 690 nm as a background using a microplate reader (Bio-Rad Laboratories, model 3350, California, USA). For the untreated cells (negative control), the medium was added instead of the tested compounds. […] Dimethylsulfoxide (DMSO) was the vehicle used for dissolution of the testing compound, and its final concentration on the cells was less than 0.2%. At the same dilution, the solvent concentration was the same for all drugs and between the control and drug treatments.

Bcl-2 = Bcl-2 ELISA in HCT-116 cells; format: cell-based, human; settings: for Bcl-2 (ng/50 mg Protein): HCT-116 cells treated at IC50 concentration, control 23.56 ± 3.56, mean ± SD; for Reduction of expression level of antiapoptotic protein Bcl-2 compared to the control: HCT-116 cells, IC50 concentration
Excerpt: as §3, §4

[2] = system: S. cerevisiae (ATCC 9080); assay: Disk diffusion antimicrobial test, S. cerevisiae; format: cell-based; settings: Saccharomyces cerevisiae, ATCC9080, yeast, 20 mg per disc (title), concentration 20 µg (footnote)
Protocol: as §1, §2

B. subtilis (ATCC 6633) = assay: Disk diffusion antimicrobial test, B. subtilis; format: cell-based, Bacillus subtilis; settings: Bacillus subtilis, ATCC6633, Gram-positive, 20 mg per disc (title), concentration 20 µg (footnote)
Protocol: as §1, §2

S. aureus (ATCC 6538) = assay: Disk diffusion antimicrobial test, S. aureus; format: cell-based, Staphylococcus aureus; settings: Staphylococcus aureus, ATCC6538, Gram-positive, 20 mg per disc (title), concentration 20 µg (footnote)
Protocol: as §1, §2

A. niger (NRRL A-326) = assay: Disk diffusion antimicrobial test, A. niger; format: cell-based; settings: Aspergillus niger, fungi, 20 mg per disc (title), concentration 20 µg (footnote)
Protocol: as §1, §2

Compound	zone of inhibition at 20 µg/disc (C. albicans (ATCC 10231)) [mm]	Caspase-3 Activity % (caspase-3) [%]	Bax (pg/50 mg Protein) (Bax)	inhibition at 100 µg/mL [1] [%]	IC50 [1] [µg/mL]	Bcl-2 (ng/50 mg Protein) (Bcl-2)	Reduction of expression level of antiapoptotic protein Bcl-2 compared to the control (Bcl-2)	zone of inhibition at 20 µg/disc [2] [mm]	zone of inhibition at 20 µg/disc (B. subtilis (ATCC 6633)) [mm]	zone of inhibition at 20 µg/disc (S. aureus (ATCC 6538)) [mm]	zone of inhibition at 20 µg/disc (A. niger (NRRL A-326)) [mm]
COc1c(C2=NNC3(C2)C(=O)Nc2ccccc23)c(O)cc2occc12 (stereo not shown) [Compound 11a, 5’-(6-Hydroxy-4-methoxy-benzofuran-5-yl)-2’,4’-dihydrospiro(indoline-3,3’-pyrazol)-2-one]	20	19.12 ± 0.89	122.34 ± 3.45	94.3	21.1 (≈ 60.4 µM)	8.2 ± 1.26	~ 66%	16	12	–	–
COc1cc2occc2c(OC)c1C1=NNC2(C1)C(=O)Nc1ccccc12 (stereo not shown) [Compound 11b, 5’-(4,6-Dimethoxy-benzofuran-5-yl)-2’,4’-dihydrospiro(indoline-3,3’-pyrazol)-2-one]	18	14.04 ± 0.54	109.35 ± 4.05	92.3	19.4 (≈ 53.4 µM)	7.25 ± 1.45	~76%	18	12	–	–
COc1c(C2=NNC3(C2)C(=O)Nc2ccccc23)c(O)c(OC)c2occc12 (stereo not shown) [Compound 12a, 5’-(6-Hydroxy-4,7-dimethoxy-benzofuran-5-yl)-2’,4’-dihydrospiro(indoline-3,3’-pyrazol)-2-one]	12	17.43 ± 0.58	113.09 ± 1.98	93.6	20.2 (≈ 53.2 µM)	21.13 ± 1.45	–	10	16	8	–
COc1c(C2=NNC3(C2)C(=O)Nc2ccccc23)c(OC)c2ccoc2c1OC (stereo not shown) [Compound 12b, 5’-(4,6,7-Trimethoxy-benzofuran-5-yl)-2’,4’-dihydrospiro(indoline-3,3’-pyrazol)-2-one]	10	33.12 ± 1.37	167.07 ± 4.83	97.4	16.7 (≈ 42.5 µM)	18.87 ± 1.84	–	10	18	10	8
